Key:
Type in all cases: cell-based
[1] = test system: five different strains of bacteria; test: Successive dilution in TSB, statements on all five strains
Protocol: (§1) The following is a summary of an experiment using the benzaldehyde composition as disclosed herein to destroy bacteria, for example to test it as a preservative of food. The benzaldehyde was tested for its ability to inhibit the growth of microbes at ten different concentrations of the benzaldehyde, each concentration was half of the previous concentrations as a result of a dilution using TSB as the medium. The following concentrations were tested by successive dilutions of 100% benzaldehyde: 50%, 25%, 12.5%, 6.25%, 3.125%, 1.5625%, 0.78125%, 0.390625%, 0.195313%, 0.097656%. Each concentration appears in the chart below for each of five different strains of bacteria. The experiment was conducted twice and therefore generated two charts (see below). […] Thus, the minimum concentration needed to substantially eliminate the bacterial strain can be deduced from the experiment.
(§2) The initial concentration of the microbes was approximately […]. The microbes studied are listed below. Enterococcus feaclis • 2. Staphylococcus aureus • 3. Pseudomonas aeruginosa • 4. E. coli • 5. Klebsiella pneomoniae
A further experiment was conducted in which instead of starting from a 100% concentration, we started from a 10% concentration of benzaldehyde and performed successive dilutions. […] This experimental was not repeated after receiving the results.

Pseudomonas aeruginosa = test: Successive dilution in TSB, growth inhibition; design: key: The presence of a “+” in the box indicates that the particular bacteria was found; the presence of a “−” indicates that the particular bacteria was not found
Protocol: as §1, §2

E. coli [2] = test: Successive dilution in TSB, growth inhibition; design: key: The presence of a “+” in the box indicates that the particular bacteria was found; the presence of a “−” indicates that the particular bacteria was not found
Protocol: as §1, §2

Enterococcus feaclis = test: Successive dilution in TSB, growth inhibition; design: key: The presence of a “+” in the box indicates that the particular bacteria was found; the presence of a “−” indicates that the particular bacteria was not found
Protocol: as §1, §2

Staphylococcus aureus = test: Successive dilution in TSB, growth inhibition; design: key: The presence of a “+” in the box indicates that the particular bacteria was found; the presence of a “−” indicates that the particular bacteria was not found
Protocol: as §1, §2

Klebsiella pneomoniae = test: Successive dilution in TSB, growth inhibition; design: key: The presence of a “+” in the box indicates that the particular bacteria was found; the presence of a “−” indicates that the particular bacteria was not found
Protocol: as §1, §2

E. coli [3] = test: Successive dilution in TSB, growth inhibition; design: key: The presence of a “+” in the box indicates that the particular bacteria was found; the presence of a “−” indicates that the particular bacteria was not found; details: benzaldehyde concentration given as 2, in TSB; Table 1
[4] = conclusion from the dilution experiments
[5] = benzaldehyde 0.097656% in TSB, Table 1
[6] = benzaldehyde 0.097656% in TSB, Table 2
[7] = benzaldehyde 0.195313% in TSB, Table 1
[8] = benzaldehyde 0.195313% in TSB, Table 2
[9] = benzaldehyde 0.390625% in TSB, Table 1
[10] = benzaldehyde 0.390625% in TSB, Table 2
[11] = benzaldehyde 0.78125% in TSB, Table 1
[12] = benzaldehyde 0.78125% in TSB, Table 2
[13] = benzaldehyde 1.5625% in TSB, Table 1
[14] = benzaldehyde 1.5625% in TSB, Table 2
[15] = benzaldehyde 3.125% in TSB, Table 1
[16] = benzaldehyde 3.125% in TSB, Table 2
[17] = benzaldehyde 6.25% in TSB, Table 1
[18] = benzaldehyde 6.25% in TSB, Table 2
[19] = benzaldehyde 12.5% in TSB, Table 1
[20] = benzaldehyde 12.5% in TSB, Table 2
[21] = benzaldehyde 25% in TSB, Table 2
[22] = benzaldehyde 50% in TSB, Table 1
[23] = benzaldehyde 50% in TSB, Table 2
[24] = benzaldehyde concentration given as 2, in TSB, Table 1

SMILES: O=Cc1ccccc1 [Benzaldehyde]
- benzaldehyde concentration giving a broad spectrum effect [1, 4]: ≥ 12.5%
- benzaldehyde concentration giving an antibacterial effect against at least some bacteria [1, 4]: ≥ 1.5625%
- detection of bacteria ([1]; further experiment started from 10% benzaldehyde, first dilution to 5%, all strains): positive detection of bacteria for all strains
- bacteria found (+) / not found (−) (Pseudomonas aeruginosa; [5]): +
- bacteria found (+) / not found (−) (Pseudomonas aeruginosa; [6]): +
- bacteria found (+) / not found (−) (Pseudomonas aeruginosa; [7]): +
- bacteria found (+) / not found (−) (Pseudomonas aeruginosa; [8]): +
- bacteria found (+) / not found (−) (Pseudomonas aeruginosa; [9]): +
- bacteria found (+) / not found (−) (Pseudomonas aeruginosa; [10]): +
- bacteria found (+) / not found (−) (Pseudomonas aeruginosa; [11]): +
- bacteria found (+) / not found (−) (Pseudomonas aeruginosa; [12]): +
- bacteria found (+) / not found (−) (Pseudomonas aeruginosa; [13]): −
- bacteria found (+) / not found (−) (Pseudomonas aeruginosa; [14]): −
- bacteria found (+) / not found (−) (Pseudomonas aeruginosa; [15]): −
- bacteria found (+) / not found (−) (Pseudomonas aeruginosa; [16]): −
- bacteria found (+) / not found (−) (Pseudomonas aeruginosa; [17]): −
- bacteria found (+) / not found (−) (Pseudomonas aeruginosa; [18]): −
- bacteria found (+) / not found (−) (Pseudomonas aeruginosa; [19]): −
- bacteria found (+) / not found (−) (Pseudomonas aeruginosa; [20]): −
- bacteria found (+) / not found (−) (Pseudomonas aeruginosa; [21]): −
- bacteria found (+) / not found (−) (Pseudomonas aeruginosa; [22]): −
- bacteria found (+) / not found (−) (Pseudomonas aeruginosa; [23]): −
- bacteria found (+) / not found (−) (Pseudomonas aeruginosa; in TSB, Table 1): −
- bacteria found (+) / not found (−) (E. coli [2]; [5]): +
- bacteria found (+) / not found (−) (E. coli [2]; [6]): +
- bacteria found (+) / not found (−) (E. coli [2]; [7]): +
- bacteria found (+) / not found (−) (E. coli [2]; [8]): +
- bacteria found (+) / not found (−) (E. coli [2]; [9]): +
- bacteria found (+) / not found (−) (E. coli [2]; [10]): +
- bacteria found (+) / not found (−) (E. coli [2]; [11]): +
- bacteria found (+) / not found (−) (E. coli [2]; [12]): +
- bacteria found (+) / not found (−) (E. coli [2]; [13]): −
- bacteria found (+) / not found (−) (E. coli [2]; [14]): −
- bacteria found (+) / not found (−) (E. coli [2]; [15]): −
- bacteria found (+) / not found (−) (E. coli [2]; [16]): −
- bacteria found (+) / not found (−) (E. coli [2]; [17]): −
- bacteria found (+) / not found (−) (E. coli [2]; [18]): −
- bacteria found (+) / not found (−) (E. coli [2]; [19]): −
- bacteria found (+) / not found (−) (E. coli [2]; [20]): −
- bacteria found (+) / not found (−) (E. coli [2]; [21]): −
- bacteria found (+) / not found (−) (E. coli [2]; [22]): −
- bacteria found (+) / not found (−) (E. coli [2]; [23]): −
- bacteria found (+) / not found (−) (Enterococcus feaclis; [5]): +
- bacteria found (+) / not found (−) (Enterococcus feaclis; [6]): +
- bacteria found (+) / not found (−) (Enterococcus feaclis; [7]): +
- bacteria found (+) / not found (−) (Enterococcus feaclis; [8]): +
- bacteria found (+) / not found (−) (Enterococcus feaclis; [9]): +
- bacteria found (+) / not found (−) (Enterococcus feaclis; [10]): +
- bacteria found (+) / not found (−) (Enterococcus feaclis; [11]): +
- bacteria found (+) / not found (−) (Enterococcus feaclis; [12]): +
- bacteria found (+) / not found (−) (Enterococcus feaclis; [13]): +
- bacteria found (+) / not found (−) (Enterococcus feaclis; [14]): +
- bacteria found (+) / not found (−) (Enterococcus feaclis; [15]): +
- bacteria found (+) / not found (−) (Enterococcus feaclis; [16]): +
- bacteria found (+) / not found (−) (Enterococcus feaclis; [17]): +
- bacteria found (+) / not found (−) (Enterococcus feaclis; [18]): +
- bacteria found (+) / not found (−) (Enterococcus feaclis; [19]): −
- bacteria found (+) / not found (−) (Enterococcus feaclis; [20]): −
- bacteria found (+) / not found (−) (Enterococcus feaclis; [21]): −
- bacteria found (+) / not found (−) (Enterococcus feaclis; [22]): −
- bacteria found (+) / not found (−) (Enterococcus feaclis; [23]): −
- bacteria found (+) / not found (−) (Enterococcus feaclis; [24]): −
- bacteria found (+) / not found (−) (Staphylococcus aureus; [5]): +
- bacteria found (+) / not found (−) (Staphylococcus aureus; [6]): +
- bacteria found (+) / not found (−) (Staphylococcus aureus; [7]): +
- bacteria found (+) / not found (−) (Staphylococcus aureus; [8]): +
- bacteria found (+) / not found (−) (Staphylococcus aureus; [9]): +
- bacteria found (+) / not found (−) (Staphylococcus aureus; [10]): +
- bacteria found (+) / not found (−) (Staphylococcus aureus; [11]): +
- bacteria found (+) / not found (−) (Staphylococcus aureus; [12]): +
- bacteria found (+) / not found (−) (Staphylococcus aureus; [13]): +
- bacteria found (+) / not found (−) (Staphylococcus aureus; [14]): −
- bacteria found (+) / not found (−) (Staphylococcus aureus; [15]): −
- bacteria found (+) / not found (−) (Staphylococcus aureus; [16]): −
- bacteria found (+) / not found (−) (Staphylococcus aureus; [17]): −
- bacteria found (+) / not found (−) (Staphylococcus aureus; [18]): −
- bacteria found (+) / not found (−) (Staphylococcus aureus; [19]): −
- bacteria found (+) / not found (−) (Staphylococcus aureus; [20]): −
- bacteria found (+) / not found (−) (Staphylococcus aureus; [21]): −
- bacteria found (+) / not found (−) (Staphylococcus aureus; [22]): −
- bacteria found (+) / not found (−) (Staphylococcus aureus; [23]): −
- bacteria found (+) / not found (−) (Staphylococcus aureus; [24]): −
- bacteria found (+) / not found (−) (Klebsiella pneomoniae; [5]): +
- bacteria found (+) / not found (−) (Klebsiella pneomoniae; [6]): +
- bacteria found (+) / not found (−) (Klebsiella pneomoniae; [7]): +
- bacteria found (+) / not found (−) (Klebsiella pneomoniae; [8]): +
- bacteria found (+) / not found (−) (Klebsiella pneomoniae; [9]): +
- bacteria found (+) / not found (−) (Klebsiella pneomoniae; [10]): −
- bacteria found (+) / not found (−) (Klebsiella pneomoniae; [11]): +
- bacteria found (+) / not found (−) (Klebsiella pneomoniae; [12]): −
- bacteria found (+) / not found (−) (Klebsiella pneomoniae; [13]): −
- bacteria found (+) / not found (−) (Klebsiella pneomoniae; [14]): −
- bacteria found (+) / not found (−) (Klebsiella pneomoniae; [15]): −
- bacteria found (+) / not found (−) (Klebsiella pneomoniae; [16]): −
- bacteria found (+) / not found (−) (Klebsiella pneomoniae; [17]): −
- bacteria found (+) / not found (−) (Klebsiella pneomoniae; [18]): −
- bacteria found (+) / not found (−) (Klebsiella pneomoniae; [19]): −
- bacteria found (+) / not found (−) (Klebsiella pneomoniae; [20]): −
- bacteria found (+) / not found (−) (Klebsiella pneomoniae; [21]): −
- bacteria found (+) / not found (−) (Klebsiella pneomoniae; [22]): −
- bacteria found (+) / not found (−) (Klebsiella pneomoniae; [23]): −
- bacteria found (+) / not found (−) (Klebsiella pneomoniae; [24]): −
- bacteria found (+) / not found (−) (E. coli [3]): −
